Results as given in patent EP0656889B1, “9-CHLOROPROSTAGLANDIN ESTERS AND AMIDES AND THEIR USE IN THE PREPARATION OF DRUGS” (SCHERING AKTIENGESELLSCHAFT, priority 1992, dated 1994).

What was measured:
[1] = tested on: Hairless Ratten; assay: Measurement of skin blood flow (laser Doppler flowmeter) after topical application, Beispiel 12; assay type: in vivo; details: topical on abdomen of anaesthetised female hairless rats, solvent 5% Isopropylmyristat in Ethanol, measured 2 and 4 h after application (time not given)
Description: (§1) Messung der Hautdurchblutung
Hairless Ratten (weiblich) werden gewogen (200-250g), mit 0,5ml 25% Urethan in 0,9% NaCl /100g/kg (2/3 i.p., 1/3 s.c.) narkotisiert und auf eine vorgeheizte Wärmeplatte der Fa. Jowitherm gelegt.
Auf dem Abdomen wird eine kreisförmige Fläche von 34mm Durchmesser ca. 2cm unterhalb der Sternumspitze markiert. Pro Tier wird eine Testsubstanz appliziert, die mit dem Randomisierungsprogramm RDRK zugeordnet wurde. Als Lösungsmittel wird 5% Isopropylmyristat in Ethanol verwendet. […] der jeweiligen Testlösung werden mit einer Eppendorf-Pipette gleichmäßig aufgetragen. Danach wird die behandelte Haut nochmals in drei Meßflächen von jeweils 18mm Druchmesser unterteilt und markiert. Die Hautdurchblutung wird 2 und 4 Stunden ( und gegebenenfalls 6 Stunden) nach der Applikation mit einem Laser Doppler Flowmeter (Firma Perimed) gemessen. Es werden an jedem Tier Dreifachmessungen an den markierten Stellen durchgeführt.

[2] = tested on: haarlosen Ratten; assay: Measurement of skin blood flow (non-invasive laser Doppler method) after topical application, Beispiel 13; assay type: in vivo, Ratten (Wister; hairless ); details: 4 h after local application on abdominal skin of anaesthetised (Urethan) hairless rats, solvent Isopropylmyristat in Ethanol 5/95 v/v
Description: as §1
Die Hautdurchblutung wurde mit der nichtinvasiven Laser-Doppler Methode bestimmt. Die Messsungen wurden 4 Stunden nach der lokalen Applikation der Substanzen auf der Bauchhaut von narkotisierten ( Urethan ) haarlosen Ratten* durchgeführt. Als Lösungsmittel wurde Isopropylmyristat in Ethanol verwendet ( 5/95; v/v ).
* Für diese Untersuchungen wurden weibliche Ratten (Wister; hairless ) mit einem Körpergewicht von 200-250g verwendet.

[3] = applied concentration 0,001 Prozent
[4] = applied concentration 0,003 Prozent

| Compound | Steigerung der Hautdurchblutung in Prozent [1, 3] [Prozent] | Steigerung der Hautdurchblutung in Prozent [1, 4] [Prozent] | Steigerung der Hautdurchblutung in Prozent [2, 3] [Prozent] | Steigerung der Hautdurchblutung in Prozent [2, 4] [Prozent] |
| --- | --- | --- | --- | --- |
| O=C(COC/C=C\C[C@@H]1[C@@H](/C=C/[C@@H](O)C2CCCCC2)[C@H](O)C[C@H]1Cl)OCC(=O)c1ccccc1 [Beispiel 3, (5Z,13E)-(9R,11R,15S)-9-Chlor-3-oxa-15-cyclohexyl-11,15-dihydroxy-16,17,18,19,20-pentanor-5,13-prostadiensäurephenacylester] | 139 | 146 |  |  |
| O=C(CCC/C=C\C[C@@H]1[C@@H](/C=C/[C@@H](O)C2CCCCC2)[C@H](O)C[C@H]1Cl)OCC(=O)c1ccccc1 [Beispiel 1, (5Z,13E)-(9R,11R,15S)-9-Chlor-15-cyclohexyl-11,15-dihydroxy-16,17,18,19,20-pentanor-5,13-prostadiensäurephenacylester] | 50 | 160 |  |  |
| CC(C)OC(=O)CCC/C=C\C[C@@H]1[C@@H](/C=C/[C@@H](O)C2CCCCC2)[C@H](O)C[C@H]1Cl [Beispiel 7, (5Z,13E)-(9R,11R,15S)-9-Chlor-15-cydohexyl-11,15-dihydroxy-16,17,18,19,20-pentanor-5,13-prostadiensäureisopropylester] |  |  | 93 | 183 |
| CC(C)OC(=O)COC/C=C\C[C@@H]1[C@@H](/C=C/[C@@H](O)C2CCCCC2)[C@H](O)C[C@H]1Cl [Beispiel 10, (5Z,13E)-(9R,11R,15S)-9-Chlor-3-oxa-15-cyclohexyl-11,15-dihydroxy-16,17,18,19,20-pentanor-5,13-prostadiensäureisopropylester] |  |  | 232 | 307 |
| CCOC(=O)CCC/C=C\C[C@@H]1[C@@H](/C=C/[C@@H](O)C2CCCCC2)[C@H](O)C[C@H]1Cl [Beispiel 6, (5Z,13E)-(9R,11R,15S)-9-Chlor-15-cyclohexyl-11,15-dihydroxy-16,17,18,19,20-pentanor-5,13-prostadiensäureethylester] |  |  | 115 | 197 |
| CCOC(=O)COC/C=C\C[C@@H]1[C@@H](/C=C/[C@@H](O)C2CCCCC2)[C@H](O)C[C@H]1Cl [Beispiel 9, (5Z,13E)-(9R,11R,15S)-9-Chlor-3-oxa-15-cyclohexyl-11,15-dihydroxy-16,17,18,19,20-pentanor-5,13-prostadiensäureethylester] |  |  | 200 | 325 |
